Reference: US20260108548A1, “COMPOSITION OF PAEONIFLORIN AND ISOLIQUIRITIGENIN AND USE THEREOF” (HENAN UNIVERSITY OF CHINESE MEDICINE, priority 2023, published 2026)

Columns and labels:
Type in all cases: in vivo, SD rats
[1] = tested on: rat pulmonary fibrosis model; experiment: R value comprehensive evaluation of 8 indicators, Example 1; conditions: for Total efficacy related indicator R value: 8 indicators, R=1 best effect, R=2 no corrective effect, X ± SE, N = 8
Procedure: The data were standardized and the Rcomprehensive value data set was established (Rcomprehensive=R−(−2)). […] When Rcomprehensive<1, it means that the comprehensive corrective degree of the drug on such indicators exceeds the normal value.
A total of 8 indicators, i.e., lung function (FVC, FEV0.3, IC, Cydn), lung tissue pathology (H&E staining, Masson staining), and collagen deposition (CoL I, α-SMA) were calculated using the R value comprehensive evaluation method.

α-SMA = α-SMA expression in lung tissue by immunohistochemistry, Example 1; conditions: for α-SMA (IOD): lung tissue IHC, doses per Table 4, 14 days, X ± SE, N = 6; for expression of α-SMA protein, compared with the model group: P<0.05
Procedure: (§1) A rat pulmonary fibrosis model was prepared using a one-time intratracheal instillation of bleomycin. After the rat was anesthetized by intraperitoneal injection of 10% chloral hydrate (3.0 ml/kg), it was tilted back and fixed on a rat board and irradiated with light source on the throat, and the glottis was seen to open and close in an orderly manner with breathing when the tongue was gently lifted to open the mouth. The indwelling needle was gently pushed into the trachea as the glottis opened and closed, the needle core was pulled out, and whether tracheal intubation was successful was verified by swing of a cotton thread. Bleomycin was injected into the trachea at a dose of 5 mg/kg, and 0.5 ml of air was further injected to ensure the depth of the drug. The rat was held upright and rocked from side to side to ensure even distribution of the drug in the lung. The anesthetized rat was placed on an electric blanket to maintain body temperature. After waking up, it is placed into a corresponding cage. The rats were fed normally until the 28th day, drinking pure water and eating sterile feed freely every day.
(§2) The modeling day was set as day 0.
(§3) The detection was performed by Immunohistochemistry.
(§4) The lung tissue was sliced into 4 μm sections and baked at 60° C. for 3 hours. The paraffin sections were dewaxed in xylene, dehydrated in gradient alcohols, and washed in distilled water for 2 minutes in order. The washed sections were then boiled in 0.01 M citrate buffer in a microwave oven for antigen retrieval. A 3% […] was added dropwise to the sections to block endogenous peroxidase. After the sections were blocked with a 5% BSA blocking solution and incubated at 37° C. for 30 minutes, the primary antibody was added dropwise thereto (the dilution ratio was 1:500 for CoL I, and 1:2000 for α-SMA), and the sections were incubated overnight in a humid box at 4° C. HRP-labeled goat anti-rabbit secondary antibody was added dropwise, and the sections were incubated at 37° C. for 20 minutes; and then SABC was added dropwise and the sections were incubated at 37° C. for 30 minutes. Thereafter, a freshly prepared DAB chromogenic solution was added dropwise, and the sections were observed under a microscope, and the color development was stopped once brownish yellow appeared. The sections were counterstained with hematoxylin for 30 seconds, differentiated with a 1% hydrochloric acid in alcohol for 3 seconds; and dehydrated in gradient alcohols in sequence. The sections were dried in a fume hood, sealed with neutral gum, and dried in the air. Images were collected with Olympus-DP70 microscope (Image-Pro Plus 6.0, IPP 6.0), 6 fields were randomly selected for each section, and the image integrated optical density (IOD) was calculated.

[2] = tested on: rat pulmonary fibrosis model; experiment: Lung function (FinePointe PFT) in bleomycin pulmonary fibrosis rats, Example 1
Procedure: as §1, §2
(§5) Before collecting the sample, the rat was anesthetized and submitted to a tracheotomy, and the tracheal tube was inserted into the rat's trachea and fixed. The FinePointe™ series PFT measurement system was used to detect the rat's forced vital capacity (FVC), forced expiratory volume in 0.3 s (FEV 0.3), vital capacity (VC), and dynamic lung compliance (Cydn).

CoL I = CoL I expression in lung tissue by immunohistochemistry, Example 1; conditions: for COL I (IOD): lung tissue IHC, doses per Table 4, 14 days, X ± SE, N = 6; for expression of CoL I protein, compared with the model group: P<0.01, P<0.05
Procedure: as §1, §2, §3, §4

[3] = tested on: rat pulmonary fibrosis model; experiment: Lung tissue pathology, H&E and Masson staining, Szapiel scoring, Example 1; conditions: for Alveolitis (score): H&E staining; for Alveolitis (score) / Pulmonary fibrosis (score): score 0-3, doses per Table 4, 14 days, X ± SE, N = 6; for Pulmonary fibrosis (score): Masson staining
Procedure: as §1, §2
The left lung was fixed with 10% formaldehyde for 72 hours, embedded in paraffin, sectioned at 4 μm for HE and Masson staining.
Pathological scoring of alveolitis and pulmonary fibrosis was performed according to the Szapiel method, the degree of alveolitis was determined by HE staining, and the degree of pulmonary fibrosis was determined by Masson staining.
The pathological changes in lung tissue were observed using an optical microscope. 6 sections were selected from each group and 6 fields were selected from each section.

[4] = tested on: rat pulmonary fibrosis model; experiment: Lung function in bleomycin pulmonary fibrosis rats, Example 2; conditions: for IC: isoliquiritigenin, paeoniflorin, combination each 0.55 mg/kg/d intragastric, day 29-42, X ± SE, N = 10
[5] = tested on: rat pulmonary fibrosis model; experiment: as above; conditions: for Cydn / FEV0.3 / FVC: isoliquiritigenin, paeoniflorin, combination each 0.55 mg/kg/d intragastric, day 29-42, X ± SE, N = 10
Procedure: In order to evaluate the difference in the efficacy of isoliquiritigenin and paeoniflorin alone and in combination, a study was conducted by splitting the Formula 8 into isoliquiritigenin, paeoniflorin and combination thereof, each adopting the dose of 0.55 mg/kg/d.
The experimental materials and research methods were the same as those in Example 1.
A total of 72 rats were randomly divided into blank group, model group, isoliquiritigenin group, paeoniflorin group, combination group, and pirfenidone group, 6 groups in total, 12 rats in each group, and 6 female/group, 6 male/group. The modeling day was set as day 0. From the 29th day, the blank group (normal rats without modeling) and the model group were administered intragastrically with physiological saline (2 ml/rat), the isoliquiritigenin group was administered with isoliquiritigenin (0.55 mg/kg/d), the paeoniflorin group was administered with paeoniflorin (0.55 mg/kg/d), and the combination group was administered with isoliquiritigenin+paeoniflorin (0.55 mg/kg/d), once daily, for 14 days, and the samples were collected at the end of the 42nd day.
as §5, with “rats were” for “rat was”

[6] = tested on: rat pulmonary fibrosis model; experiment: Lung tissue pathology, H&E and Masson staining, Szapiel scoring, Example 2; conditions: for Alveolitis (score): H&E staining; for Alveolitis (score) / Pulmonary fibrosis (score): each 0.55 mg/kg/d, 14 days, X ± SE, N = 6; for Pulmonary fibrosis (score): Masson staining
Procedure: The experimental materials and research methods were the same as those in Example 1. […] The modeling day was set as day 0. […] The left lung was fixed with 10% formaldehyde for 72 hours, embedded in paraffin, sectioned at 4 μm for HE and Masson staining. Pathological scoring of alveolitis and pulmonary fibrosis was performed according to the Szapiel method, the degree of alveolitis was determined by HE staining, and the degree of pulmonary fibrosis was determined by Masson staining. The pathological changes in the lung tissue were observed using an optical microscope. 6 sections were selected from each group and 6 fields were selected from each section.

[7] = bleomycin 5 mg/kg intratracheal, intragastric once daily day 29-42, doses per Table 4, X ± SE, N = 10

## COc1ccc(-c2oc3c(CC=C(C)C)c(O[C@@H]4O[C@H](CO)[C@@H](O)[C@H](O)[C@H]4O)cc(O)c3c(=O)c2O[C@@H]2O[C@@H](C)[C@H](O)[C@@H](O)[C@H]2O)cc1 [Formula 3, icariin]
[1]
  Total efficacy related indicator R value: 1.76 ± 0.16^∘^
α-SMA
  α-SMA (IOD): 12.03 ± 1.87 IOD
[2]; [7]
  Cydn: 0.34 ± 0.05 mL/s
  FEV0.3: 10.46 ± 1.58 mL/s
CoL I
  COL I (IOD): 17.80 ± 1.44 IOD
[3]
  Alveolitis (score): 0.94 ± 0.39 score
  Pulmonary fibrosis (score): 1.33 ± 0.31 score
[3]; P<0.01, P<0.05
  alveolitis scores, compared with the model group: significantly reduced

## O=C(/C=C/c1ccc(O)cc1)c1ccc(O)cc1O [Formula 4, isoliquiritigenin]
[1]
  Total efficacy related indicator R value: 1.82 ± 0.11^∘∘
[4]
  IC: 9.03 ± 0.88 mL/s
[5]; P<0.01, P<0.05
  FEV0.3, compared with the model group: increased
[5]
  Cydn: 0.32 ± 0.04 mL/s
  FEV0.3: 11.09 ± 1.01 mL/s
  FVC: 11.34 ± 0.78 mL/s
α-SMA
  α-SMA (IOD): 12.20 ± 0.89 IOD
[2]; [7]
  Cydn: 0.30 ± 0.03 mL/s
  FEV0.3: 10.42 ± 1.43 mL/s
CoL I
  expression of CoL I protein, compared with the model group: significantly reduced
  COL I (IOD): 15.54 ± 2.59 IOD
[3]
  Alveolitis (score): 1.72 ± 0.25 score
  Pulmonary fibrosis (score): 1.78 ± 0.33 score
[6]
  Alveolitis (score): 1.68 ± 0.30 score
  Pulmonary fibrosis (score): 1.74 ± 0.31 score
[6]; P<0.01, P<0.05
  pulmonary fibrosis score, compared with the model group: could reduce

## COc1ccc(-c2cc(=O)c3c(OC)c(OC)c(OC)c(OC)c3o2)cc1OC [Formula 5, nobiletin]
[1]
  Total efficacy related indicator R value: 1.48 ± 0.46
α-SMA
  expression of α-SMA protein, compared with the model group: significantly reduced
  α-SMA (IOD): 9.030 ± 0.8 IOD
[2]; P<0.05
  Cydn, compared with the model group: increased
[2]; [7]
  Cydn: 0.35 ± 0.02 mL/s
  FEV0.3: 11.44 ± 1.41 mL/s
CoL I
  COL I (IOD): 18.40 ± 0.89 IOD
[3]
  Alveolitis (score): 1.39 ± 0.54 score
  Pulmonary fibrosis (score): 1.56 ± 0.49 score

## C[C@H]1CC[C@@H]2N(C1)C[C@H]1[C@@H]3C[C@H]4[C@@H](C[C@H](O)[C@H]5C[C@@H](O)CC[C@@]54C)[C@@H]3CC[C@@H]1[C@]2(C)O [Formula 6, peimine]
[1]
  Total efficacy related indicator R value: 1.57 ± 0.29
α-SMA
  expression of α-SMA protein, compared with the model group: significantly reduced
  α-SMA (IOD): 9.647 ± 0.8 IOD
[2]; [7]
  Cydn: 0.30 ± 0.03 mL/s
  FEV0.3: 12.04 ± 1.36 mL/s
CoL I
  COL I (IOD): 17.37 ± 0.89 IOD
[3]
  Alveolitis (score): 1.17 ± 0.19 score
  Pulmonary fibrosis (score): 1.39 ± 0.23 score
[3]; P<0.01, P<0.05
  alveolitis scores, compared with the model group: significantly reduced

## Cc1ccc(=O)n(-c2ccccc2)c1 [Pirfenidone]
[1]
  Total efficacy related indicator R value: 1.61 ± 0.32^#^
[4]; P<0.01, P<0.05
  IC, compared with the model group: increased
[4]
  IC: 10.77 ± 0.83 mL/s
[5]; P<0.01, P<0.05
  FEV0.3, compared with the model group: increased
[5]
  Cydn: 0.33 ± 0.03 mL/s
  FEV0.3: 13.46 ± 1.04 mL/s
  FVC: 12.34 ± 1.11 mL/s
α-SMA
  α-SMA (IOD): 12.57 ± 1.17 IOD
[2]; P<0.01, P<0.05
  IC, compared with the model group: significantly increased
[2]; [7]
  Cydn: 0.33 ± 0.03 mL/s
  FEV0.3: 10.68 ± 0.97 mL/s
CoL I
  expression of CoL I protein, compared with the model group: significantly reduced
  COL I (IOD): 10.41 ± 0.63 IOD
[3]
  Alveolitis (score): 1.33 ± 0.24 score
  Pulmonary fibrosis (score): 1.33 ± 0.37 score
[6]
  Alveolitis (score): 1.43 ± 0.28 score
  Pulmonary fibrosis (score): 1.46 ± 0.39 score
[6]; P<0.01, P<0.05
  alveolitis score, compared with the model group: significantly reduced
  pulmonary fibrosis score, compared with the model group: significantly reduced

## paeoniflorin [Formula 7]
[1]
  R value comprehensive evaluation, comparison between treatment groups: better than the Formula 3 (icariin), the Formula 4 (isoliquiritigenin), and the Formula 5 (nobiletin)
  Total efficacy related indicator R value: 1.41 ± 0.27^##□▪
[4]
  IC: 9.62 ± 0.54 mL/s
[5]; P<0.01, P<0.05
  FEV0.3, compared with the model group: increased
  FVC, compared with the model group: increased
[5]
  Cydn: 0.31 ± 0.54 mL/s
  FEV0.3: 12.88 ± 0.98 mL/s
  FVC: 13.49 ± 1.17 mL/s
α-SMA
  expression of α-SMA protein, compared with the model group: significantly reduced
  α-SMA (IOD): 10.57 ± 0.36 IOD
[2]; P<0.01, P<0.05
  FEV0.3, compared with the model group: significantly increased
  FVC, compared with the model group: significantly increased
  IC, compared with the model group: significantly increased
[2]; P<0.05
  FEV0.3, compared with the pirfenidone group: increased
  FVC, compared with the pirfenidone group: increased
[2]; [7]
  Cydn: 0.31 ± 0.03 mL/s
  FEV0.3: 14.70 ± 1.25^##Δ ml/s
  FVC: 15.95 ± 1.36^##Δ ml/s
  IC: 9.84 ± 0.75 mL/s
CoL I
  expression of CoL I protein, compared with the model group: significantly reduced
  COL I (IOD): 13.61 ± 1.90 IOD
[3]
  Alveolitis (score): 1.44 ± 0.27 score
  Pulmonary fibrosis (score): 0.94 ± 0.16 score
[3]; P<0.01, P<0.05
  pulmonary fibrosis scores, compared with the model group: significantly reduced
[6]
  Alveolitis (score): 1.52 ± 0.29 score
  Pulmonary fibrosis (score): 1.65 ± 0.19 score
[6]; P<0.01, P<0.05
  pulmonary fibrosis score, compared with the model group: could reduce
